According to PubChem BioAssay (NCI):
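Tested at 5 concentrations; 48 h exposure; 96-well plates; endpoints linearly interpolated, else capped at highest concentration. At the TGI there is no net growth.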

How the values were obtained:
Test in all cases: NCI tumour cell line growth inhibition, 48 h
[1] = system: 786-0 renal
[2] = system: SNB-19 CNS
[3] = system: RPMI-8226 leukemia
[4] = system: KM12 colon
[5] = system: U251 CNS
[6] = system: KM20L2 colon
[7] = system: OVCAR-8 ovarian
[8] = system: HT29 colon
[9] = system: HOP-92 NSCLC
[10] = system: NCI-H522 lung
[11] = system: IGROV1 ovarian
[12] = system: OVCAR-4 ovarian
[13] = system: EKVX NSCLC
[14] = system: HCT-116 colon
[15] = system: HCT-15 colon
[16] = system: NCI-H460 lung
[17] = system: M19-MEL melanoma
[18] = system: SNB-75 CNS
[19] = system: SN12C renal
[20] = system: M14 melanoma
[21] = system: UACC-257 melanoma
[22] = system: MOLT-4 leukemia
[23] = system: LXFL 529 NSCLC
[24] = system: RXF 393 renal
[25] = system: SR leukemia
[26] = system: A549 NSCLC
[27] = system: SF-268 CNS
[28] = system: DMS 114 small cell lung
[29] = system: CCRF-CEM leukemia
[30] = system: SW-620 colon
[31] = system: COLO 205 colon
[32] = system: SK-MEL-2 melanoma
[33] = system: HCC-2998 colon
[34] = system: SNB-78 CNS
[35] = system: HOP-62 NSCLC
[36] = system: HOP-18 NSCLC
[37] = system: HL-60(TB) leukemia
[38] = system: SF-295 CNS
[39] = system: NCI-H23 lung
[40] = system: SF-539 CNS
[41] = system: NCI-H226 lung
[42] = system: MALME-3M melanoma
[43] = system: ACHN renal
[44] = system: DMS 273 small cell lung
[45] = system: UO-31 renal
[46] = system: SK-OV-3 ovarian
[47] = system: SK-MEL-28 melanoma
[48] = system: OVCAR-5 ovarian
[49] = system: UACC-62 melanoma
[50] = system: K-562 leukemia
[51] = system: DLD-1 colon
[52] = system: SK-MEL-5 melanoma
[53] = system: RXF-631 renal
[54] = system: OVCAR-3 ovarian
[55] = system: LOX IMVI melanoma
[56] = system: P388/ADR leukemia
[57] = system: SN12K1 renal
[58] = system: A498 renal
[59] = system: CAKI-1 renal
[60] = system: XF 498 CNS
[61] = system: NCI/ADR-RES ovarian
[62] = system: P388 leukemia
[63] = system: MCF7 breast
[64] = system: BT-549 breast
[65] = system: MDA-N
[66] = system: PC-3 prostate
[67] = system: MDA-MB-435
[68] = system: DU-145 prostate
[69] = system: TK-10 renal
[70] = system: T-47D breast
[71] = system: HS 578T breast

Cc1ccccc1N(CCC#N)C1=NN(C(=O)CC(=O)Nc2ccc(Cl)cc2)C(c2ccccc2)C1 (stereo not given)
TGI [1]: > 100 µM | TGI [2]: > 100 µM | TGI [3]: > 100 µM | TGI [4]: > 100 µM | TGI [5]: > 100 µM | TGI [6]: > 100 µM | TGI [7]: > 100 µM | TGI [8]: > 100 µM | TGI [9]: > 100 µM | TGI [10]: > 100 µM | TGI [11]: > 100 µM | TGI [12]: > 100 µM | TGI [13]: > 100 µM | TGI [14]: > 100 µM | TGI [15]: > 100 µM | TGI [16]: > 100 µM | TGI [17]: > 100 µM | TGI [18]: > 100 µM | TGI [19]: > 100 µM | TGI [20]: > 100 µM | TGI [21]: > 100 µM | TGI [22]: > 100 µM | TGI [23]: > 100 µM | TGI [24]: > 100 µM | TGI [25]: > 100 µM | TGI [26]: > 100 µM | TGI [27]: > 100 µM | TGI [28]: > 100 µM | TGI [29]: > 100 µM | TGI [30]: > 100 µM | TGI [31]: > 100 µM | TGI [32]: > 100 µM | TGI [33]: > 100 µM | TGI [34]: > 100 µM | TGI [35]: > 100 µM | TGI [36]: > 100 µM | TGI [37]: > 100 µM | TGI [38]: > 100 µM | TGI [39]: > 100 µM | TGI [40]: > 100 µM | TGI [41]: > 100 µM | TGI [42]: > 100 µM | TGI [43]: > 100 µM | TGI [44]: > 100 µM | TGI [45]: > 100 µM | TGI [46]: > 100 µM | TGI [47]: > 100 µM | TGI [48]: > 100 µM | TGI [49]: > 100 µM | TGI [50]: > 100 µM | TGI [51]: > 100 µM | TGI [52]: > 100 µM | TGI [53]: > 100 µM | TGI [54]: > 100 µM

CC1CC(C)(O)C2C3(C)CCCC2(COC3=O)C12CCC1(CCOC1=O)O2 (stereo not given)
TGI [2]: > 250 µM | TGI [3]: > 250 µM | TGI [4]: > 250 µM | TGI [5]: > 250 µM | TGI [6]: > 250 µM | TGI [7]: > 250 µM | TGI [8]: > 250 µM | TGI [9]: > 250 µM | TGI [55]: > 250 µM | TGI [10]: > 250 µM | TGI [11]: > 250 µM | TGI [12]: > 250 µM | TGI [56]: > 116 µM | TGI [13]: > 250 µM | TGI [14]: > 250 µM | TGI [57]: > 250 µM | TGI [15]: > 250 µM | TGI [16]: > 250 µM | TGI [17]: > 250 µM | TGI [18]: > 250 µM | TGI [19]: > 250 µM | TGI [21]: > 250 µM | TGI [22]: > 250 µM | TGI [58]: 248 µM | TGI [24]: > 250 µM | TGI [59]: > 250 µM | TGI [26]: > 250 µM | TGI [27]: > 250 µM | TGI [28]: > 250 µM | TGI [29]: > 250 µM | TGI [30]: > 250 µM | TGI [31]: > 250 µM | TGI [32]: > 250 µM | TGI [33]: > 250 µM | TGI [34]: > 250 µM | TGI [35]: > 250 µM | TGI [60]: > 39.6 µM | TGI [36]: > 250 µM | TGI [37]: > 250 µM | TGI [38]: > 250 µM | TGI [39]: > 250 µM | TGI [40]: > 250 µM | TGI [61]: > 250 µM | TGI [41]: > 250 µM | TGI [42]: > 250 µM | TGI [44]: > 250 µM | TGI [45]: > 250 µM | TGI [46]: > 250 µM | TGI [47]: > 250 µM | TGI [62]: > 250 µM | TGI [63]: > 250 µM | TGI [48]: > 250 µM | TGI [49]: > 250 µM | TGI [50]: > 250 µM | TGI [51]: > 250 µM | TGI [52]: > 250 µM | TGI [54]: > 250 µM

CCCCCCCCCCCCCCCCCCN(C)CC(COC)OP(=O)([O-])OCC[N+](C)(C)C (stereo not given)
TGI [1]: 2.57 µM | TGI [2]: 2.5 µM | TGI [3]: 3.14 µM | TGI [4]: 1.62 µM | TGI [64]: 6.75 µM | TGI [5]: 2.44 µM | TGI [6]: 5.94 µM | TGI [7]: 14.2 µM | TGI [8]: 4.66 µM | TGI [9]: 3.33 µM | TGI [55]: 20.2 µM | TGI [65]: 15.3 µM | TGI [10]: 4.22 µM | TGI [11]: 1.52 µM | TGI [12]: 9.75 µM | TGI [13]: 28.1 µM | TGI [14]: 11.8 µM | TGI [15]: 13.6 µM | TGI [16]: 2.35 µM | TGI [17]: 10.1 µM | TGI [18]: 3.68 µM | TGI [19]: 14.6 µM | TGI [20]: 15 µM | TGI [66]: 1.47 µM | TGI [67]: 17.4 µM | TGI [21]: 22.7 µM | TGI [22]: 11 µM | TGI [23]: 7.98 µM | TGI [58]: 14 µM | TGI [24]: 2.29 µM | TGI [25]: 8.55 µM | TGI [59]: 5.27 µM | TGI [26]: 7.69 µM | TGI [27]: 4.17 µM | TGI [28]: 9.75 µM | TGI [29]: 5.16 µM | TGI [30]: 15.6 µM | TGI [31]: 2.6 µM | TGI [32]: 30.2 µM | TGI [33]: 3.07 µM | TGI [34]: 13.4 µM | TGI [35]: 5.17 µM | TGI [60]: 16.8 µM | TGI [36]: 9.91 µM | TGI [37]: 8.53 µM | TGI [38]: 4.71 µM | TGI [39]: 11.7 µM | TGI [40]: 13 µM | TGI [61]: 33.3 µM | TGI [68]: 5.13 µM | TGI [41]: 13.5 µM | TGI [69]: 3.06 µM | TGI [42]: 26.6 µM | TGI [43]: 15.6 µM | TGI [44]: 2.45 µM | TGI [45]: 20.2 µM | TGI [70]: 32.7 µM | TGI [46]: 25.1 µM | TGI [47]: 31.2 µM | TGI [63]: 14.8 µM | TGI [48]: 5.95 µM | TGI [49]: 14.9 µM | TGI [50]: 40.2 µM | TGI [51]: 12.8 µM | TGI [52]: 23.7 µM | TGI [53]: 22 µM | TGI [71]: 17.8 µM | TGI [54]: 11.2 µM

NC(CCc1nc(-c2cccc([N+](=O)[O-])c2)cs1)C(=O)O (stereo not given)
TGI [2]: > 100 µM | TGI [4]: > 100 µM | TGI [5]: > 100 µM | TGI [6]: > 100 µM | TGI [7]: > 100 µM | TGI [8]: > 100 µM | TGI [9]: > 100 µM | TGI [10]: > 100 µM | TGI [11]: > 100 µM | TGI [13]: > 100 µM | TGI [14]: > 100 µM | TGI [16]: > 100 µM | TGI [17]: > 100 µM | TGI [20]: > 100 µM | TGI [21]: > 100 µM | TGI [22]: > 100 µM | TGI [58]: > 100 µM | TGI [24]: > 100 µM | TGI [25]: > 100 µM | TGI [26]: > 100 µM | TGI [28]: > 100 µM | TGI [29]: > 100 µM | TGI [34]: > 100 µM | TGI [35]: > 100 µM | TGI [37]: > 100 µM | TGI [38]: > 100 µM | TGI [39]: > 100 µM | TGI [69]: > 100 µM | TGI [43]: > 100 µM | TGI [44]: > 100 µM | TGI [45]: > 100 µM | TGI [46]: > 100 µM | TGI [47]: > 100 µM | TGI [48]: > 100 µM | TGI [49]: > 100 µM | TGI [53]: > 100 µM
